Target: ABCB1 (Homo sapiens, UniProt P08183)
Sequence (P08183 whole entry): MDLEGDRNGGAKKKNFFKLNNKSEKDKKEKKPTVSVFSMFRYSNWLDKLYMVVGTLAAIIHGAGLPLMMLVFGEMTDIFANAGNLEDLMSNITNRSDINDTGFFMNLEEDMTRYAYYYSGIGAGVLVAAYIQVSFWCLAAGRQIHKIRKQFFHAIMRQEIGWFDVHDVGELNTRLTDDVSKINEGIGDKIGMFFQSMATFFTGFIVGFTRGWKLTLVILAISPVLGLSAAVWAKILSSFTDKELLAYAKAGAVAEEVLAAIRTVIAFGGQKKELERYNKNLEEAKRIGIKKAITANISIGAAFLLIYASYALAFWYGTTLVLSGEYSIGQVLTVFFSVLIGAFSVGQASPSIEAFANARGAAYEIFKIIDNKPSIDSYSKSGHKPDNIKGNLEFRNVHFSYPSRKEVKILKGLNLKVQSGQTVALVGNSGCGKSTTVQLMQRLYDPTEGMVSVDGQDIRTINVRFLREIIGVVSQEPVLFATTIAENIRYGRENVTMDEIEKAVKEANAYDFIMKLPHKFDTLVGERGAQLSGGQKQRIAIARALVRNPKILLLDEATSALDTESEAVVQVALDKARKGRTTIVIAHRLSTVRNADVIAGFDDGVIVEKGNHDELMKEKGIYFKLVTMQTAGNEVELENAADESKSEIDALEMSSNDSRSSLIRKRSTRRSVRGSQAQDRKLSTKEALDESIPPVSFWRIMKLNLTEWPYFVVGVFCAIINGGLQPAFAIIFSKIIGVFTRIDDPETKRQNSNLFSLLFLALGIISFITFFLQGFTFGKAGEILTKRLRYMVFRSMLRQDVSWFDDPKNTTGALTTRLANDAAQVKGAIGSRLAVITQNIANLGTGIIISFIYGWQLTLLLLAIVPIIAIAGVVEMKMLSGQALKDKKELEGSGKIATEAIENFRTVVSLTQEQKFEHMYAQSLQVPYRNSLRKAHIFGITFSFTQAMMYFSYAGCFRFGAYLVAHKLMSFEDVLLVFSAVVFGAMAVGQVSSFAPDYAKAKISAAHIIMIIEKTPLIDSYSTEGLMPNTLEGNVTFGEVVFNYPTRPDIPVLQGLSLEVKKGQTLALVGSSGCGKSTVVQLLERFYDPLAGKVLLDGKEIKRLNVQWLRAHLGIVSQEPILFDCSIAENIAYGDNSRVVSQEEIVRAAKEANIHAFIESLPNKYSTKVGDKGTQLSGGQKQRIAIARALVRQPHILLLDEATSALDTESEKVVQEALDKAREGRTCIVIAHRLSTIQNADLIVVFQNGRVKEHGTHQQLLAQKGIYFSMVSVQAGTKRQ

CC(=O)O[C@H]1C(=O)[C@@]2(C)[C@H]([C@H](OC(=O)c3ccccc3)[C@]3(O)C[C@H](OC(=O)[C@H](O)[C@@H](NC(=O)c4ccccc4)c4ccccc4)C(C)=C1C3(C)C)[C@]1(OC(C)=O)CO[C@@H]1C[C@@H]2O [paclitaxel]
radiolabelled substrate efflux from ABCB1-overexpressing cells: selonsertib significantly decreased the efflux of [^3H]-paclitaxel in ABCB1-overexpressing cell lines KB-C2 and SW620/Ad300

Reference: PMC8132112 (Cancer letters, 2018)
